Results reported in patent publication US5721238A, “2,8-disubstituted quinazolinones” (Bayer Aktiengesellschaft, priority 1995, dated 1998).

Legend:
Assay type in all cases: biochemical
PDE V = assay: Inhibition of the phosphodiesterases in vitro: PDE V (cGMP-specific); conditions: cGMP-specific PDE V from porcine intestine, porcine aorta and/or human blood platelets; nucleotide 10^-6 mol/l; pH 7.5; 30 minutes
Protocol: (§1) The cGMP-stimulatable PDE II, the cGMP-inhibitable PDE III and the cAMP-specific PDE IV were isolated from either porcine or bovine myocardia. The Ca-calmodulin-stimulatable PDE I was isolated from the porcine aorta or porcine brain. The cGMP-specific PDE V was obtained from the porcine intestine, porcine aorta and/or human blood platelets. Purification was carried out by anion exchange chromatography on MonoQ^R Pharmacia, essentially by the method of M. Hoey and Miles D. Houslay, Biochemical Pharmacology, Volume 40, 193-202 (1990).
(§2) The enzyme activity is determined in a test batch of 100 μl in 20 mM Tris/HCl buffer of pH 7.5 which contains 5 mM MgCl2, 0.1 mg/ml of bovine serum albumin and either 800 Bq of ^3 HcAMP or ^3 HcGMP. The final concentration of the corresponding nucleotide is 10^-6 mol/l. The reaction is started by addition of the enzyme and the amount of enzyme is chosen such that about 50% of the substrate is converted during the incubation time of 30 minutes. To test the cGMP-stimulatable PDE II, ^3 HcAMP is used as the substrate and 10^-6 mol/l of non-labelled cGMP is added to the batch. To test the Ca-calmodulin-dependent PDE I, 1 μM CaCl2 and 0.1 μM calmodulin are also added to the reaction batch. The reaction is stopped by addition of 100 μl of acetonitrile which contains 1 mM cAMP and 1 mM AMP. 100 μl of the reaction batch are separated on the HPLC and the cleavage products are determined quantitatively "online" using a flow-through scintillation counter. The substance concentration at which the rate of reaction is reduced by 50% is measured.

PDE II = assay: Inhibition of the phosphodiesterases in vitro: PDE II (cGMP-stimulatable); conditions: cGMP-stimulatable PDE II from porcine or bovine myocardia; 3HcAMP substrate 10^-6 mol/l, 10^-6 mol/l non-labelled cGMP; pH 7.5; 30 minutes
Protocol: as §1, §2

PDE I = assay: Inhibition of the phosphodiesterases in vitro: PDE I (Ca-calmodulin-stimulatable); conditions: Ca-calmodulin-stimulatable PDE I from porcine aorta or porcine brain; nucleotide 10^-6 mol/l; 1 μM CaCl2, 0.1 μM calmodulin; pH 7.5; 30 minutes
Protocol: as §1, §2

| IC50 (PDE V) [µM] | IC50 (PDE II) [µM] | IC50 (PDE I) [µM] | Structure (SMILES) |
| --- | --- | --- | --- |
| 3 | 5 | 5 | CCCCCC(O)C(OC)c1cccc2c(=O)[nH]c(-c3ccccc3OCCC)nc12 (stereo not drawn) [Example 14, 2-(2-n-Propoxyphenyl)-8-(1-methoxy-2-hydroxy-1-heptyl)-quinazolin-4(3H)-one] |
| 5 | 2 | 10 | CCCCCC(O)C(CC)c1cccc2c(=O)[nH]c(-c3ccccc3OCCC)nc12 (stereo not drawn) [Example 20, 2-(2-n-Propoxyphenyl)-8-(4-hydroxy-3-nonyl)-quinazolin-4(3H)-one] |
| 1 | 0.5 |  | CCCOc1ccc(S(=O)(=O)N2CCOCC2)cc1-c1nc2c(C(C)CCCc3ccccc3)cccc2c(=O)[nH]1 (stereo not drawn) [Example 29, 2-(2-n-Propoxy-5-morpholinosulphonylphenyl)-8-(5-phenyl-2-pentyl)-quinazolin-4-(3H)-one] |
|  | 5 | 3 | CCCOc1ccccc1-c1nc2c(C(OC)C(O)Cc3ccccc3)cccc2c(=O)[nH]1 (stereo not drawn) [Example 15, 2-(2-n-Propoxyphenyl)-8-(3-phenyl-1-methoxy-2-hydroxy-1-propyl)-quinazolin-4(3H)-one] |
| 5 | 5 |  | CCCOc1ccccc1-c1nc2c(C(OC)C(O)CCc3ccccc3)cccc2c(=O)[nH]1 (stereo not drawn) [Example 16, 2-(2-n-Propoxyphenyl)-8-(4-phenyl-1-methoxy-2-hydroxy-1-butyl)-quinazolin-4(3H)-one] |
